Data published in patent US7863350B2, “Food preservation compositions and methods of use thereof” (priority 2007, dated 2011).
“And” between values parts separate entries of the source, which are not always exact repeats. Identical values can stand only once.

Legend:
aerobic microflora [1] = test: Aerobic Plate Count of the absorbent in trays after 11 days (Example 2); format: cell-based; conditions: for growth inhibition (APC) in the absorbent over the control absorbent: about 4° C.
Protocol: (§1) The absorbent in the trays was analyzed for aerobic plate count and salmonella levels at the conclusion of the study. The data was obtained on day 11.

Salmonella sp. [2] = test: Survival of Salmonella on sliced tomatoes with low levels of antimicrobials at 4° C. (Example 3); format: cell-based; conditions: for Survival of Salmonella on sliced tomatoes, 5 days: about 4° C.
Protocol: The effect of low levels of specified antimicrobials on survival of Salmonella sp. in packaged sliced tomato under refrigeration (4±1° C.) was determined. The volatile antimicrobials tested were chlorine dioxide, allyl isothiocyanate cyclodextrine, origanum cyclodextrine, cinnamaldehyde cyclodextrine and basil cyclodextrine.
Slices were inoculated with 5 Salmonella strains that included S. poona (cantaloupe associated outbreak), S. stanley H 1256 (Alfafa sprout associated outbreak), S. baildon (tomato associated outbreak), S. typhimurium DT 104 (multiple antibiotic resistant) and S. montevideo (tomato associated outbreak). […] The inoculated packages were stored at 4±1° C. for 10 days.
(§2) Inoculated and uninoculated tomato slices were analyzed at 0, 5 and 10 days. […] The plates were incubated at 37° C. for 18 hr and typical Salmonella colonies counted. The absorbent (fluid in case of Control 1 trays) was analyzed for Salmonella and Aerobic Plate Count by plating appropriate dilution of the gel/fluid on MacConkey agar plates and Plate Count Agar.

Salmonella [3] = test: Location of viable Salmonella on tomato slices after storage with antimicrobials; format: cell-based; conditions: about 4° C.; for viable Salmonella in Portion 1: Table 5
Protocol: (§3) Slices were inoculated with 5 Salmonella strains that included S. poona (cantaloupe associated outbreak), S. stanley H 1256 (Alfafa sprout associated outbreak), S. baildon (tomato associated outbreak), S. typhimurium DT 104 (multiple antibiotic resistant) and S. montevideo (tomato associated outbreak). […] Then, the specified volatile antimicrobials were pipetted into the wells of each package. The inoculated packages were stored at 4±1° C. for 10 days.
(§4) Inoculated and uninoculated tomato slices were analyzed at days 0 and 10. […] The diluted samples were plated on MacCkonkey agar plates. The plates were incubated at 37° C. for 18 hr and typical Salmonella colonies counted.
Tomato slices were inoculated with Salmonella between slices and placed in trays. […] The day 0 data (data is taken the day after inoculation) presented in Table 4 indicates no difference in the location of the inoculum between the Control 1 trays and the Control 2 tray at “0” time. After 10 days of storage, slices still had Salmonella distributed throughout; however, the distribution differed between Control 1 trays and Control 2 trays. The Salmonella in the Control 2 trays were located primarily at the top most portion of the slice (average of 72% of Salmonella on the top skin), whereas the Control 1 trays had high numbers at the bottom of the slice (average of 41% in bottom two portions). The total number of Salmonella increased on the slices to a similar extent for both tray types (Table 1).

aerobic microflora [4] = test: Aerobic plate count in the absorbent/juice from trays after 10 days (Example 3); format: cell-based; conditions: about 4° C.
Protocol: as §2

Salmonella [5] = test: Salmonella in the absorbent in trays after 11 days (Example 2); format: cell-based; conditions: about 4° C.
Protocol: as §1

Salmonella sp. [6] = test: Survival of Salmonella on sliced tomato packaged with volatile antimicrobials at about 4° C. (Example 2); format: cell-based; conditions: for effectiveness against Salmonella on slices: 10 days, origanum 150 μl, basil 75 μl, chlorine dioxide in absorbent or as spray, cyclodextrine forms high level, cinnamaldehyde 35 μl with spray
Protocol: The effect of volatile antimicrobials on the survival of Salmonella sp. in packaged sliced tomato was determined. The antimicrobials tested were origanum oil, basil oil, cyclodextrine cinnamaldehyde, chlorine dioxide as spray and in absorbent, and allyl isothiocyanate in cyclodextrine. The combinations of cinnamaldehyde with chlorine dioxide and allyl isothiocyanate in cyclodextrine with cinnamaldehyde were also tested.
as §3, §4

Salmonella [7] = test: Salmonella counts in the absorbent/juice from trays after 10 days (Example 3); format: cell-based; conditions: about 4° C.
Protocol: as §2

Salmonella spp. = test: Survival of Salmonella spp. in packaged sliced tomato with volatile oils at about 11° C.; format: cell-based; conditions: for Salmonella on sliced tomatoes, Day 9: 9 days at about 11° C.
Description: The effect of origanum, basil, and cinnamaldehyde oils on the survival of Salmonella sp. in packaged sliced tomato was studied. Five Salmonella serotypes were used namely, S. poona (cantaloupe associated outbreak), S. stanley H 1256 (Alfa Alfa sprout associated outbreak), S. baildon (tomato associated outbreak), S. typhimurium DT 104 and S. montevideo (tomato associated outbreak). Five μl of the cocktail was inoculated on top of three tomato slices in package to have a target inoculum of 5×10^6 CFU/slice. Then, 12, 35, and 75 μl of each volatile antimicrobial agent were pipetted into the wells of the separate packages. The packages were stored at 11° C. for 9 days. After 8 days of incubation mold was observed on some slices in some packages.
The inoculated tomato slices were analyzed at day 0 and 9. Each slice was mixed with 90 ml 0.1% peptone water and stomached for 1 min. Next, 1 ml of the stomached material was diluted in 9 ml 0.1% peptone and spiral plated on MacCkonkey agar plates. The plates were incubated at 37° C. for 18 hr.
The data was analyzed by the General Linear Method using SAS 9.1. […] All results are for Day 9 except for the control. All day 0 counts were the same as the control. […] The other results include both the volatile antimicrobial agent and absorbent materials.

yeast and mold = conditions: 4° C., up to 10 days
[8] = test system: pathogenic and aerobic microorganisms

SMILES: [O][Cl+][O-] [Chlorine Dioxide, chlorine dioxide]
- Aerobic Plate Count of the absorbent in trays (Table 6) (aerobic microflora [1]; 4° C., chlorine dioxide, amount not given): 4.63 Log CFU/ml
- growth inhibition (APC) in the absorbent over the control absorbent (aerobic microflora [1]): did not produce much additional growth inhibition
- growth inhibition (APC) in the absorbent over the control absorbent (aerobic microflora [1]; listed as chlorine dioxide spray): increased growth inhibition
- Survival of Salmonella on sliced tomatoes, 5 days (Salmonella sp. [2]; 0.024 g per tray): 6.32 Log CFU/g
- Survival of Salmonella on sliced tomatoes, 5 days (Salmonella sp. [2]; 0.052 g per tray): 5.61 Log CFU/g
- Survival of Salmonella on sliced tomatoes, 5 days (Salmonella sp. [2]; 0.112 g per tray): 5.90 Log CFU/g
- Survival of Salmonella on sliced tomatoes, 5 days (Salmonella sp. [2]; 0.25 g per tray): 5.65 Log CFU/g
- Survival of Salmonella on sliced tomatoes, 5 days (Salmonella sp. [2]; 0.4 g per tray): 5.96 Log CFU/g
- Survival of Salmonella on sliced tomatoes, 10 days (Salmonella sp. [2]; 10 days, 4° C., 0.024 g per tray): 5.89 Log CFU/g
- Survival of Salmonella on sliced tomatoes, 10 days (Salmonella sp. [2]; 10 days, 4° C., 0.052 g per tray): 5.65 Log CFU/g
- Survival of Salmonella on sliced tomatoes, 10 days (Salmonella sp. [2]; 10 days, 4° C., 0.112 g per tray): 5.42 Log CFU/g
- Survival of Salmonella on sliced tomatoes, 10 days (Salmonella sp. [2]; 10 days, 4° C., 0.25 g per tray): 5.32 Log CFU/g
- Survival of Salmonella on sliced tomatoes, 10 days (Salmonella sp. [2]; 10 days, 4° C., 0.4 g per tray): 5.15 Log CFU/g
- effect on Salmonella on tomato slices (Salmonella sp. [2]; 10 days, 4° C., added to absorbent): significantly reduced levels
- viable Salmonella in Portion 1 (top portion of skin) (Salmonella [3]; Table 4, Day 10, chlorine dioxide, amount not given): 70 % of total survivors and 69 % of total survivors and 81 % of total survivors
- viable Salmonella in Portion 1 (Salmonella [3]; Day 0, spray, listed as Chlorine Dioxide Spray): 56 % of total survivors and 55 % of total survivors and 79 % of total survivors
- Aerobic Plate Count in the absorbent/juice (aerobic microflora [4]; 0.024 g per tray): <2.3 Log CFU/g
- Aerobic Plate Count in the absorbent/juice (aerobic microflora [4]; 0.052 g per tray): 4.62 Log CFU/g
- Aerobic Plate Count in the absorbent/juice (aerobic microflora [4]; 0.112 g per tray): 5.1 Log CFU/g
- Aerobic Plate Count in the absorbent/juice (aerobic microflora [4]; 0.25 g per tray): <2.3 Log CFU/g
- Aerobic Plate Count in the absorbent/juice (aerobic microflora [4]; 0.4 g per tray): <2.3 Log CFU/g
- Salmonella in the absorbent in trays (Table 8) (Salmonella [5]; chlorine dioxide, amount not given): 1.40 Log CFU/ml
- Salmonella in the absorbent in trays (Table 9) (Salmonella [5]; spray): 2.21 Log CFU/ml
- effectiveness against Salmonella on slices (Salmonella sp. [6]): most effective
- effectiveness against Salmonella on slices (Salmonella sp. [6]; listed as Chlorine dioxide spray): little effect
- Survival of Salmonella on sliced tomatoes (Table 2) (Salmonella sp. [6]; Day 0): 4.88 Log CFU/Slice
- Survival of Salmonella on sliced tomatoes (Table 3) (Salmonella sp. [6]; Day 0, spray 2.54 ml/tray): 5.27^bcd Log CFU/Slice
- Survival of Salmonella on sliced tomatoes (Table 2) (Salmonella sp. [6]; Day 10, chlorine dioxide in absorbent, amount not given): 4.32 Log CFU/Slice
- Survival of Salmonella on sliced tomatoes (Table 3) (Salmonella sp. [6]; Day 10, spray 2.54 ml/tray): 5.17^cde Log CFU/Slice
- Salmonella in the absorbent/juice (Salmonella [7]; 0.024 g per tray): 3.26 Log CFU/g
- Salmonella in the absorbent/juice (Salmonella [7]; 0.052 g per tray): 4.39 Log CFU/g
- Salmonella in the absorbent/juice (Salmonella [7]; 0.112 g per tray): 4.43 Log CFU/g
- Salmonella in the absorbent/juice (Salmonella [7]; 0.4 g per tray): 3.77 Log CFU/g
- killing of Salmonella that dripped into the absorbent (Salmonella [7]; AITC at 36): reduced the pathogen numbers

SMILES: O=CC=Cc1ccccc1 [Cinnamaldehyde, cinnamaldehyde]
- Salmonella on sliced tomatoes, Day 9 (Salmonella spp.; 12 μl per package): 5.76 ± 0.34 Log CFU/Slice
- Salmonella on sliced tomatoes, Day 9 (Salmonella spp.; 35 μl per package): 5.34 ± 0.02 Log CFU/Slice
- Salmonella population (Salmonella spp.; 9 days, 11° C., origanum 35 or 75, basil 12, cinnamaldehyde 12 and 35 μl): declined significantly
- relative antimicrobial potency (Salmonella spp.; among origanum, basil and cinnamaldehyde oils): most potent antimicrobial
- growth inhibition (APC) in the absorbent over the control absorbent (aerobic microflora [1]): little growth inhibition
- viable Salmonella in Portion 1 (Salmonella [3]; Day 10, 75 μl): 75 % of total survivors and 73 % of total survivors and 87 % of total survivors and 91 % of total survivors
- Salmonella in the absorbent in trays (Table 9) (Salmonella [5]; 35 μl): 2.83 Log CFU/ml
- Salmonella in the absorbent in trays (Table 9) (Salmonella [5]; 75 μl): 2.04 Log CFU/ml
- Survival of Salmonella on sliced tomatoes (Table 3) (Salmonella sp. [6]; Day 10, 35 μl): 4.78^fg Log CFU/Slice
- Survival of Salmonella on sliced tomatoes (Table 3) (Salmonella sp. [6]; Day 10, 75 μl): 4.67^fg Log CFU/Slice

SMILES: O=C(O)CC(O)(CC(=O)O)C(=O)O [Citric acid, citric acid]
- yeast and mold growth in tomato juice in gel (yeast and mold): little effect

SMILES: C/C=C/C=C/C(=O)[O-].[K+] [Potassium sorbate, potassium sorbate]
- yeast and mold growth in tomato juice in gel (yeast and mold): allows little growth
- effectiveness of higher vs lower levels [8]: marginally more effective
- inhibition of growth of pathogenic and aerobic microorganisms in the gel/tomato juice mixture [8]: effective at inhibiting growth
- bacteria in tomato juice in gel (total bacterial count; 4° C., up to 10 days): kills bacteria
- preservation of the gel / growth of yeast, mold and bacteria compared to the control (total bacterial count; 10 day period, 4° C. storage temperature): adequate to preserve the gel
